Experimental data published in paper PMC10382351, “In vivo evaluation of a novel ^18F-labeled PET radioligand for translocator protein 18 kDa (TSPO) in monkey brain” (European Journal of Nuclear Medicine and Molecular Imaging, 2023).

Columns and labels:
[1] = tested on: TSPO; conditions: cited from earlier work; for BPND of whole brain: monkey brain
[2] = biological target: TSPO; parameters: method as in PMID 25123416, PMID 34756026; conditions: human brain homogenates; against [^3H]PK11195; cited from earlier work
[3] = tested on: 18 kDa translocator protein (TSPO); assay: PET imaging of [^18F]SF51 in rhesus monkey brain with kinetic analysis (2TCM, Logan plot, Lassen plot); assay type: in vivo; conditions: radioligand [^18F]SF51
Description: Electrocardiogram, body temperature, heart rate, and respiratory rate measures were monitored throughout the scan.
Brain PET imaging was performed using a microPET Focus 220 camera (Siemens Medical Solution; Knoxville, TN). […] For baseline experiments, 20 mL of a vehicle containing 20% (2-hydroxypropyl)-β-cyclodextrin and two equivalents of HCl were injected intravenously 10 min before radioligand administration. For the blocked experiment, PK11195 was dissolved in vehicle and then injected intravenously (5 mg/kg) 10 min before radioligand injection for all three monkeys. One of the three monkeys underwent an additional blocked scan with 5 mg/kg of PBR28, performed using a MultiScan™ LFER 150 PET/CT (Mediso USA, LLC; Arlington, VA). The interval between baseline and blocked imaging sessions was at least three weeks in order to allow the monkey to recover from arterial blood sampling. Focus 220 PET images were histogrammed into 30 time frames (6 × 30, 3 × 60, 2 × 120, 4 × 300, and 15 × 600 s) and reconstructed using Fourier rebinning plus a two-dimensional filtered back-projection with scatter and attenuation correction. MultiScan LFER PET images were reconstructed with 3D-OSEM with two iterations and nine subsets and were corrected for scatter and attenuation.
PET images were co-registered to a standardized monkey MRI template using PMOD software (PMOD version 4.1, PMOD Technologies Ltd.; Zurich, Switzerland). Thirty-three predefined regions of interest (ROIs) from a monkey brain template were applied to the co-registered PET images to obtain regional time-activity curves (Supplementary Table S2). Brain uptake was expressed as standardized uptake value (SUV), which normalizes for injected radioactivity and body weight. Using the brain time-activity curves and the radiometabolite-corrected arterial input function, the total VT was derived from a two-tissue compartment model (2TCM). Receptor occupancy by PK11195 and nondisplaceable distribution volume (VND/fP) of [^18F]SF51 were determined by an axes-transformed Lassen plot, where the y-axis reports the difference in VT between the baseline and the blocked scans, corrected by the respective fp values, and the x-axis reports the values at baseline (VTbase/fPbase).

## CC[C@@H](C)N(C)C(=O)c1nc(-c2ccccc2Cl)c2ccccc2n1 [ER176]
[1]
  BPND of whole brain: 8.9
[2]
  Ki ratio between LAB and HAB: 1.28

## CCC(C)N(C)C(=O)c1cc2ccccc2c(-c2ccccc2Cl)n1 (stereo not drawn) [PK11195, reference compound]
[3]; PK11195 5 mg/kg i.v., three rhesus monkeys
  Receptor occupancy (Lassen plot): 102 ± 3%
[3]; PK11195 5 mg/kg, mean ± SD, n = 3
  Slope of Lassen plot (= occupancy): 1.02 ± 0.03

## CC[C@@H](C)N([11CH3])C(=O)c1nc(-c2ccccc2Cl)c2ccccc2n1 [[^11C]ER176]
[1]; monkey
  VT/fP in the whole brain: 186 mL·cm^−3

## CC[C@@H](C)N([11CH3])C(=O)c1nc(-c2cccc(F)c2)c2ccccc2n1 [[^11C]SF51]
[1]
  BPND of whole brain: 8.1
